US8017735B2, “Anti-IGFR1 antibody therapeutic combinations” (Schering Corporation, priority 2003, dated 2011)
Several values for one entry are separate records, joined by “and”; a condition that tells them apart may be missing. Equal entries are not always repeated.

B1: 19D12: Anti-IGFR antibody 19D12 (antibody, listed as Homo sapiens, V domains shown)
VL: MSPSQLIGFLLLWVPASRGEIVLTQSPGTLSVSPGERATLSCRASQSIGSSLHWYQQKPGQAPRLLIKYASQSLSGIPDRFSGSGSGTDFTLTISRLEPEDFAVYYCHQSSRLPHTFGQGTKVEIKRT
VH: MEFGLSWVFLVAILKGVQCEVQLVQSGGGLVKPGGSLRLSCAASGFTFSSFAMHWVRQAPGKGLEWISVIDTRGATYYADSVKGRFTISRDNAKNSLYLQMNSLRAEDTAVYYCARLGNFYYGMDVWGQGTTVTVSS

Tests used:
H322 human NSCLC cells = experiment: In vivo tumor inhibition assay, NSCLC xenograft model H322; parameters: species or system nude mice; settings: for Growth: Day 0 to 31
Method: Five million H322 human NSCLC cells in Matrigel were inoculated subcutaneously into nude mice. Anti-IGFR antibody 19D12 and/or paclitaxel treatment was initiated when the tumor size reached ˜105-115 mm^3 at day 0. Both 19D12 and paclitaxel were dosed twice per week. Anti-IGFR antibody 19D12 was dosed at 0.5 mg per mouse. Paclitaxel was at 15 mpk. Ten animals per group. Tumor volumes were measured by Labcat.

H322 NSCLC cells = experiment: Proliferation assay (Cell Titer-Glo) with anti-IGFR1 antibody and a chemotherapeutic agent, H322 NSCLC cells; format: cell-based, human; settings: H322, Day4, replicates
Method: The ability of cells in culture to proliferate when exposed to varying concentrations of the 19D12/15H12 wild-type or 19D12/15H12 LCF/HCA anti-IGFR1 antibody and either paclitaxel, gefitinib, lonafarnib 4-hydroxy tamoxifen or doxorubicin was evaluated in this example.
Cell Preparation. […] The cells were trypsinized, counted and resuspended at a concentration of 25000 cells/ml in 10% HI-FBS (heat-inactivated fetal bovine serum) RPMI medium containing NEAA (non-essential amino acids), L-Glu, MEM Vitamins and PS. 100 ul of cell suspension (2500 cells) was added to each well of a BD Falcon 96 well black, clear bottom TC treated plate. The cells were allowed to attach and spread overnight at 37° C. The 10% RPMI solution was replaced with 100 μl RPMI containing 2% HI-FBS containing NEAA, L-Glu, MEM Vitamins and PS.
Solution Preparation. All assay reagents were prepared in RPMI containing 2% HI-FBS at 20× concentration and serial diluted for a total of 10 test concentrations per treatment. Every test point was prepared in triplicate on separate assay plates.
Reagent 1 and 19D12/15H12 or 19D12/15H12 LCF/HCA were set up individually as dose responses as well as in combination with each other. Cell proliferation was measured on Day4.
Assay. Cell proliferation was measured using the Promega Cell Titer-Glo Luminescent Cell Viability Assay (Promega Corp.; Madison, Wis.). This assay provided a method for determining the number of viable cells in culture based on quantitation of ATP in the culture, which indicates the presence of metabolically active cells.
The assay reagents and assay plates were equilibrated to room temperature and prepared immediately before addition to the assay plates. One volume of assay reagent was added to each well of the assay plate and shaken on an orbital platform for at least ten minutes to allow for equilibration of the ATP reaction and to ensure total lysis of all cells in the assay plate. […] Luminescence was detected on Wallac 420 Plate Reader with stacker.
The units in the tables (proliferation index) are arbitrary and are proportional to the number of viable cells observed in the culture under each respective condition.
In Tables 2-6, “ug” indicates micrograms and “uM” indicates micromolar.

[1] = Day 0 (treatment start), H322 xenograft in nude mice
[2] = 19D12 0.5 mg per mouse and/or Taxol 15 mpk, twice per week
[3] = Day 31, 19D12 0.5 mg per mouse and/or Taxol 15 mpk, twice per week

Row | Molecule | tumor volume (H322 human NSCLC cells; [1]) [mm3] | Growth (H322 human NSCLC cells; [2]) | % inhibition (tumor growth inhibition) (H322 human NSCLC cells; [3]) [%] | tumor volume (H322 human NSCLC cells; [3]) [mm3] | proliferation index (H322 NSCLC cells; Taxol alone 0.00256 ng/mL) | proliferation index (H322 NSCLC cells; Taxol alone 0.064 ng/mL) | proliferation index (H322 NSCLC cells; Taxol alone 8 ng/mL) | proliferation index (H322 NSCLC cells; Taxol alone 40 ng/mL) | proliferation index (H322 NSCLC cells; Taxol alone 200 ng/mL) | proliferation index (H322 NSCLC cells; Taxol alone 1000 ng/mL)
1 | CC(=O)O[C@H]1C(=O)[C@@]2(C)[C@H]([C@H](OC(=O)c3ccccc3)[C@]3(O)C[C@H](OC(=O)[C@H](O)[C@@H](NC(=O)c4ccccc4)c4ccccc4)C(C)=C1C3(C)C)[C@]1(OC(C)=O)CO[C@@H]1C[C@@H]2O [Taxol, paclitaxel] | 109.54 | 104.71 | 52 | 214.25 | 72498 and 78070 and 89290 and 71662 and 72122 and 77618 and 81720 and 80172 and 76744 | 75374 and 83082 and 74926 and 73584 and 75710 and 75356 and 87602 and 75690 and 76350 | 38354 and 33654 and 34598 and 31556 and 36038 and 35906 and 34498 and 53256 and 41418 | 22160 and 25204 and 22624 and 22020 and 22956 and 24152 and 23908 and 24834 and 22462 | 19372 and 23650 and 23668 and 23164 and 23482 and 24314 and 25752 and 23960 and 21420 | 20932 and 26882 and 24582 and 23884 and 23712 and 25890 and 24522 and 24842 and 20306
2 | B1 | 106.57 | 66.45 | 75.50 | 173.02 | – | – | – | – | – | –
